Data published in patent US10889596B2, “Beta-amino pateamine a derivatives and methods for treating chronic lymphocytic leukemia” (The Texas A&M University System, priority 2016, dated 2021).
Values joined by “and” are separate entries in the source; they are usually repeats but may differ in a detail not shown here. Equal values may be shown once. Read-outs that look alike come from different tables or passages of the source.

Key:
[1] = test system: primary CLL cells; experiment: Toxicity/apoptosis in primary CLL cells, annexin V/PI double staining and flow cytometry; type: cell-based, human; conditions: for influence of human plasma content on potency: RPMI with 10% fetal bovine serum, 10% or 50% patient plasma
Description: (§1) The mechanism of action of DMDAPatA was studied in multiple primary CLL samples (FIG. 3A). […] CLL cells were incubated with DMDAPatA for 4 and 24 h then pulse labeled with [^3H]leucine for 1 h. The amount of [^3H]leucine incorporation into the acid insoluble materials (DNA, RNA and proteins) was measured by scintillation counter. […] This is consistent in 3 samples as quantitated in FIG. 3C. The Bcl-2 level was not affected by DMDAPatA, which is consistent with its longer half-life (FIG. 3C). […] MOMP facilitates the release of cytochrome c from mitochondria to form the apoptosome, which activated caspase-3 and induced apoptosis. As PARP is a substrate of caspase-3, an increase of cleaved PARP in FIG. 3C indicated activation of caspase 3. Apoptosis was measured by annexin V and propodium iodide (PI) double staining followed by flow cytometry.
(§2) To screen for PatA analogs with greater potency and less plasma protein binding, the toxicity of the analogs to primary CLL cells was measured after 24 of incubation by annexin/PI double staining followed by flow cytometry. This was compared between CLL cells cultured in media supplemented with either 10% FBS or patient plasma to evaluate the plasma influence. Plasma protein binding was assessed using the equilibrium dialysis method (FIG. 7B).

[2] = Stability of DMDAPatA in RPMI, FBS and human plasma; type: in vitro ADME; conditions: read-out: Half-life time (converted)
Description: These experiments were performed in CLL cells cultured in media supplemented with 10% patient plasma. While mimicking the in vivo environment, we also found this condition beneficial in maintaining cell survival. One potential reason for the reduced potency in the presence of human plasma is stability. To test this theory, the stability of DMDAPatA was studied in FBS and human plasma at two different concentrations.

[3] = test system: Mcl-1; experiment: Immunoblot of Mcl-1 level in CLL cells; type: cell-based, human; conditions: CLL samples
Description: as §1
(§3) To confirm that the analogs retain the inhibition on protein synthesis, leucine incorporation analysis was performed on the analogs (FIG. 9A) and compared to DMDAPatA and PatA.

[4] = test system: models of human leukemia and melanoma; conditions: mice; cited from earlier work
[5] = test system: protein synthesis in CLL cells; experiment: [3H]leucine incorporation analysis of protein synthesis in CLL cells; type: cell-based, human; conditions: CLL cells incubated 4 and 24 h, pulse labeled 1 h
Description: as §1, §3

[6] = Plasma protein binding, equilibrium dialysis; type: in vitro ADME, human
Description: as §2
In this example, the plasma protein binding assay used to provide the plasma protein binding data is described.
The assay includes the following steps.
1. Frozen plasma was thawed and centrifuged at 1120 g for 10 min to remove any particulates. The plasma was decanted, the pH was measured and, if required, was adjusted to pH7.4 with lactic acid.
2. All compounds were prepared at 10 mM concentration in DMSO. The solutions were carefully vortexed to ensure the compounds dissolved. The 10 mM DMSO solutions were diluted to 500 μM MeOH solutions (5+95 μl).
3. In a 2 mL 96-well plate (DWP), 1000 μL of plasma was pipetted into each well in Columns 1-4.
4. 10 μL of the 500 μM compound solution was pipetted to 1000 μL of corresponding plasma. (The final DMSO=0.05%). The solution was capped and carefully vortexed for 5 min.
5. 200 μL of PBS buffer was added to each receiver well of the dialysis plate (buffer was added to the Receiver first).
6. The bottom of dialysis plate was capped and turned over to the orange donor side (top) of dialysis plate.
7. The orange donor side of the dialysis plate was uncapped and 200 μL of the 10 μM drug/plasma samples were transferred from the 2 ml 96-DWP to the corresponding donor wells in the dialysis plate. The orange donor side of the dialysis plate was then capped.
8. The dialysis plate was placed onto the plate rotator in a 37° C. oven and incubated at 37° C. with a rotation speed 20 rpm for 22 hr.
9. To a 1 mL 96-DWP, 50 μL/well of the 5 μM drug/plasma samples was pipetted from the 2 mL 96-DWP in triplicate. 50 μL/well of PBS and then 300 μL of ACN/IS was added. The plate was kept at 4° C. This plate serves as the recovery plate.
10. Two 1 mL 96-DWP were prepared and marked as Donor Plate and Receiver Plate.
11. The dialysis plate was removed from the 37° C. oven.
12. The caps were removed from the donor side of the dialysis plate.
13. 50 μL of samples were pipetted from the donor side of the dialysis plate and added into the 96-DWP Donor Plate. 50 μL of PBS buffer was added into the 96-DWP Donor Plate.
14. The donor side of the dialysis plate was capped and turned over. Caps were removed from the Receiver side wells. 50 uL of samples were pipetted from the Receiver side of the dialysis plate and added to the 96-DWP Receiver Plate. […]
23. The samples in the Receiver Plate, Donor Plate, and Recovery Plate were analyzed by LC/MS/MS […]

[7] = test system: Bcl-2; experiment: Immunoblot of Bcl-2 level in CLL cells; type: cell-based, human; conditions: CLL samples
Description: as §1

[8] = test system: B cells from normal donors; experiment: Cellular toxicity to B cells from normal donors; type: cell-based, human
Source text: (§4) To predict the therapeutic window of the PatA analogs, their cellular toxicity was compared to CLL cells and to B and T cells from normal donors (FIGS. 8A and 8B). […] PatA was originally identified as a biological probe that inhibits T cell activation, consistent with its toxicity to T cells.

[9] = test system: T cells from normal donors; experiment: Cellular toxicity to T cells from normal donors; type: cell-based, human
Source text: as §4

[10] = test system: P388 murine leukemia cells; conditions: read-out: IC50, cytotoxic activity; cited from earlier work
[11] = primary CLL cells, media with 10% FBS, 24 incubation, read-out: IC50 (μM) 10% FBS
[12] = primary CLL cells, media with 10% patient plasma, 24 incubation, read-out: IC50 (μM) 10% Plasma
[13] = RPMI medium without serum, Pure RPMI
[14] = Homo sapiens, CLL cell, primary CLL cells, media with 10% FBS, 24 incubation, read-out: IC50 (μM) 10% FBS
[15] = Homo sapiens, CLL cell, primary CLL cells, media with 10% patient plasma, 24 incubation, read-out: IC50 (μM) 10% Plasma

Compound “1,1,1-Trichloro-2-methylpropan-2-yl ((12Z,3S,6Z,8E,11S,15R)-3-((1E,3E,5E)-7-(dimethyl amino)-2-methylhepta-1,3,5-trien-1-yl)-9,11-dimethyl-5,13-dioxo-4,12-dioxa-1(2,4)-thiazolacycloheptadecaphane-6,8-dien-15-yl)carbamate [OR-IV-211]” has an IC50 [1, 11] of 3.5 µM and an IC50 [1, 12] of 6.65 µM.
`CC(/C=C/C(C)=C/[C@@H]1Cc2nc(cs2)CCCCC(=O)O[C@@H](C)C/C(C)=C/C=C\C(=O)O1)=C\CN(C)C` [DMDAPatA, Des-methyl, des-amino Pateamine A] showed a half-life at 1 µM ([2]; Fetal Bovine Serum) of 16 h, a half-life at 10 µM ([2]; Fetal Bovine Serum) of 11.5 h and a half-life at 1 µM ([2]; Human Plasma) of 18 h. The half-life at 10 µM ([2]; Human Plasma) was 14 h, the half-life at 1 µM [2, 13] was 3 h and the half-life at 10 µM [2, 13] was 3.2 h. The Mcl-1 level [3] was “reduced the short-lived anti-apoptotic protein Mcl-1”, the “potency relative to PatA (times less potent)” value ([1]; CLL cells, media with 10% patient plasma) was “about 30 times” and the “IC50 in samples with favorable versus poor prognostic characteristics” value ([1]; CLL patient samples by prognostic group) was “no significant differences”. For the same compound, the IC50 ([1]; Homo sapiens, CLL cell, measured in 13 CLL samples, read-out: average IC50) was 2.8 µM, the IC50 [1, 14] was 0.65 µM and the IC50 [1, 15] was 6.42 µM. The “influence of human plasma content on potency” value [1] was “greatly reduced the potency”, the “activity in xenograft models” value [4] was “significant tumor reduction” and the “inhibition of protein synthesis ([3H]leucine incorporation)” value [5] was “inhibit protein synthesis”. The recovery in plasma [6] was “low recovery”, the plasma protein bound ([6]; human plasma) was 99.7% and > 99% and the Bcl-2 level [7] was “not affected”.
In the case of `CC(=O)NC1CCc2csc(n2)CC(C=C(C)C=CC(C)=CCN(C)C)OC(=O)C=CC=C(C)CC(C)OC(=O)C1` [MZ732, N-((12Z,3S,6Z,8E,11S,15R)-3-((1E,3E,5E)-7-(dimethylamino)-2,5-dimethylhepta-1,3,5-trien-1-yl)-9,11-dimethyl-5,13-dioxo-4,12-dioxa-1(2,4)-thiazolacycloheptadecaphane-6,8-dien-15-yl)acetamide], the IC50 [1, 11] is reported as 4.58 µM and the IC50 [1, 12] is reported as 6.8 µM.
With `CC(/C=C/C(C)=C/[C@@H]1Cc2nc(cs2)CC[C@@H](N)CC(=O)O[C@@H](C)C/C(C)=C/C=C\C(=O)O1)=C\CN(C)C` [OR-IV-234, (12Z,3S,6Z,8E,11S,15R)-15-amino-3-((1E,3E,5E)-7-(dimethylamino)-2,5-dimethylhepta-1,3,5-trien-1-yl)-9,11-dimethyl-4,12-dioxa-1(2,4)-thiazolacycloheptadecaphane-6,8-diene-5,13-dione] the IC50 [1, 11] was 0.33 µM, the IC50 [1, 12] was 0.35 µM and the “plasma protein binding (PPB) compared with PatA and DMDAPatA” value [6] was “much lower plasma protein binding”. For the same compound, the recovery in plasma [6] was “modest recovery”.
For `CC(/C=C/C(C)=C/[C@@H]1Cc2nc(cs2)[C@@H](C)C[C@@H](N)CC(=O)O[C@@H](C)C/C(C)=C/C=C\C(=O)O1)=C\CN(C)C` [PatA, Pateamine A], the IC50 [1, 14] was 0.2 µM, the IC50 [1, 15] was 0.2 µM and the “influence of human plasma content on potency” value [1] was “not as influential”. For the same compound, the “toxicity to normal B cells compared with CLL cells” value [8] was “similarly toxic to CLL cells as well as normal B and T cells”, the “toxicity to normal T cells compared with CLL cells” value [9] was “similarly toxic to CLL cells as well as normal B and T cells” and the IC50 [10] was 0.27 nM.
